Measured values taken from patent US20200253877A1, “GEMCABENE, PHARMACEUTICALLY ACCEPTABLE SALTS THEREOF, COMPOSITIONS THEREOF AND METHODS OF USE THEREFOR” (NEUROBO PHARMACEUTICALS, INC., priority 2018, published 2020).

System: hepatic mRNA expression in STAM™ mice
Assay: Murine STAM model of NASH-HCC: hepatic gene expression by quantitative RT-PCR
Assay type: in vivo, mouse
Description: A study was performed to evaluate the efficacy of gemcabene calcium salt hydrate Crystal Form 1 having a PSD90 of 52 μm as measured by laser light diffraction, in treating non-alcoholic steatosis hepatitis (NASH) in the murine STAM™ model of NASH-HCC.
Briefly, two-day old neonatal C57BL/6 male mice were administered low-dose streptozotocin (STZ), and were subsequently fed a HFC diet from 4 weeks of age. In this model, the mice typically develop liver steatosis and diabetes, reaching steatohepatitis within 3 weeks, followed by cirrhosis within 8 weeks, and carcinoma within 16 weeks. In the current study, mice were administered daily oral gemcabene calcium salt hydrate Crystal Form 1 starting at week 6 of age and were sacrificed at week 9. […] These STAM™ groups were orally administered from week 6 one of the following: water-vehicle, gemcabene calcium salt hydrate Crystal Form 1 at 30, 100 and 300 mg/kg daily, or telmisartan ([…]®) 10 mg/kg daily. […] All groups were sacrificed at week 9. Vehicle, gemcabene calcium salt hydrate Crystal Form 1, or telmisartan were administered by oral gavage once daily.
Various gene expression markers of liver metabolism were evaluated by Real-Time PCR (RT-PCR) in all mouse groups. Total RNA was extracted from liver samples using RNAiso (Takara Bio, Japan) according to the manufacturer's instructions. […] of RNA was reverse-transcribed using a reaction mixture containing 4.4 mM MgCl2 (F. Hoffmann-La Roche, Switzerland), 40 U RNase inhibitor (Toyobo, Japan), 0.5 mM dNTP (Promega, USA), 6.28 μM random hexamer (Promega), 5×first strand buffer (Promega), 10 mM dithiothreitol (Invitrogen, USA) and 200 U MMLV-RT (Invitrogen) in a final volume of 20 μL. The reaction was carried out for 1 hour at 37° C., followed by 5 minutes at 99° C. Real-time PCR was performed using real-time PCR DICE and SYBR premix Taq (Takara Bio). To calculate the relative mRNA expression level, the expression of each gene was normalized to that of reference gene 36B4 (gene symbol: RplpO). Information of PCR-primer sets is described in Tables 37A-37C. Statistical analyses were performed using the Bonferroni Multiple Comparison Test on GraphPad Prism 6 (GraphPad Software Inc., USA). P values <0.05 were considered statistically significant. Results are expressed as mean±SD.
In order to calculate the relative mRNA expression level, the expression of each gene was normalized to that of the reference gene 36B4 (gene symbol: RplpO). The gene expression levels were measured by quantitative RT-PCR. Results were normalized with values for the vehicle-treated normal group. […] Gemcabene calcium salt hydrate Crystal Form 1 (PSD90=52 μm) modulated the mRNA expression of many hepatic genes that play a significant role in the liver homeostasis and injury.

[1] = 10 mg/kg, n = 7, STAM mice, normalized to non-treated group
[2] = gemcabene Form 1 100 mg/kg, telmisartan 10 mg/kg
[3] = vs Vehicle in NASH group, gemcabene Form 1 100 and 300 mg/kg, telmisartan 10 mg/kg

SMILES: CCCc1nc2c(C)cc(-c3nc4ccccc4n3C)cc2n1Cc1ccc(-c2ccccc2C(=O)O)cc1 [telmisartan, reference compound]
- ACC1 gene expression (mean ± SD) [1]: 0.7 ± 0.1
- ACC2 gene expression (mean ± SD) [1]: 0.3 ± 0.1
- ADH-4 gene expression (mean ± SD) [1]: 0.6 ± 0.2
- ANGPTL3 gene expression (mean ± SD) [1]: 0.7 ± 0.2
- ANGPTL4 gene expression (mean ± SD) [1]: 2.1 ± 0.3
- ANGPTL8 gene expression (mean ± SD) [1]: 0.3 ± 0.1
- ApoC-III gene expression (mean ± SD) [1]: 0.8 ± 0.2
- CCR2 gene expression (mean ± SD) [1]: 2.4 ± 0.8
- CCR5 gene expression (mean ± SD) [1]: 1.5 ± 0.3
- CRP gene expression (mean ± SD) [1]: 0.9 ± 0.1
- CXCL1/KC gene expression (mean ± SD) [1]: 0.6 ± 0.3
- Fetuin-A gene expression (mean ± SD) [1]: 1.0 ± 0.1
- IL-1β gene expression (mean ± SD) [1]: 0.7 ± 0.2
- IL-6 gene expression (mean ± SD) [1]: 0.8 ± 0.4
- LDL receptor gene expression (mean ± SD) [1]: 0.7 ± 0.3
- LPL gene expression (mean ± SD) [1]: 2.4 ± 0.5
- MCP-1 gene expression (mean ± SD) [1]: 2.1 ± 1.0
- MIP-1β gene expression (mean ± SD) [1]: 3.9 ± 1.5
- MMP-2 gene expression (mean ± SD) [1]: 1.4 ± 0.7
- NF-κB gene expression (mean ± SD) [1]: 1.1 ± 0.1
- PNPLA3 gene expression (mean ± SD) [1]: 0.1 ± 0.0
- SCD1 gene expression (mean ± SD) [1]: 0.1 ± 0.0
- SREBP-1 gene expression (mean ± SD) [1]: 0.7 ± 0.2
- Sulf-2 gene expression (mean ± SD) [1]: 3.9 ± 0.9
- TIMP-1 gene expression (mean ± SD) [1]: 8.6 ± 5.1
- TNF-α gene expression (mean ± SD) [1]: 3.0 ± 1.2
- α-SMA gene expression (mean ± SD) [1]: 2.3 ± 0.7
- LDL receptor gene expression (STAM mice): no effect
- ACC-1 mRNA expression (relative, mean±SD) [2]: 0.7±0.1
- ADH-4 mRNA expression (relative, mean±SD) [2]: 0.6±0.2
- CCR2 mRNA expression (relative, mean±SD) [2]: 2.4±0.8
- CCR5 mRNA expression (relative, mean±SD) [2]: 1.5±0.3
- CRP mRNA levels (relative, mean±SD) [2]: No significant differences
- MCP-1 mRNA expression (relative, mean±SD) [2]: 2.1±1.0
- MIP-1β mRNA levels (relative, mean±SD) [2]: 3.9±1.5
- hepatic LPL mRNA expression levels (vs Vehicle in NASH group, gemcabene Form 1 30, 100 and 300 mg/kg, telmisartan 10 mg/kg): no significant difference
- ANGPTL4 mRNA expression levels [3]: significant down-regulations
- IL-6 mRNA expression level [3]: significant down-regulations
